The subject of data set [1] is Eimeria tenella. Nature of the data set: Growth inhibition activities to avian coccidium in primary chicken kidney cells. Format: cell-based. The conditions noted are these: Eimeria tenella; more than 80% of suppression rate regarded as effective; read-out: Effective dose (growth inhibition). Here is the method:
The kidneys of SPF new born chicken was sterilely removed, which was treated with trypsin and the resultant primary kidney cells were cultured in 24-well plate. Monolayer culture after cultured for 3 days was treated simultaneously with compounds adjusted to predetermined concentration and sporozoit obtained by artificial excystation, which was cultured a 40° C. Premature and mature schizonts were observed under microscope, and the growth inhibition activities (suppression rate) for each treatment group were calculated at a proportion of the number of schizonts for the sporozoit-inoculated, compound-untreated control group (100%).

Data set [2] is described as follows: Cytotoxicity to primary chicken kidney culture cells. The format is cell-based. The conditions noted are these: primary chicken kidney cells.
Data set [3] has as its system M. gallisepticum. The experiment in a line: In vivo evaluation test for M. gallisepticum in chickens (air-sac lesions). Conditions: 6 chickens tested.
In data set [4] the test system is mice spleen cells. Nature of the data set: Suppression of reaction of mice spleen cells to Concanavalin A, in vitro (MTT). The format is cell-based, BDF1 mice. As for the experimental part:
(§1) To each well of 96 well microtiter plate were added 5×10^5 spleen cells of BDF1 mice suspended in 0.1 ml of RPMI 1640 medium supplemented with 10% bovine fetus serum (supplemented with 2 mM sodium hydrogen carbonate, 50 Units/ml of penicillin, 50 μg/ml of streptomycin, and 5×10^-5 M of 2-mercaptoethanol), and then, 5 μg/ml of Concanavalin A (Con A) or 10 μg/ml of lypopolysaccaride (LPS) and various concentrations of test substance, of which final volume was adjusted to 0.2 ml. Test substances were dissolved in dimethylsulfoxide (DMSO), diluted with RPMI 1640 stated above, and added to the wells so that final concentration of the substances becomes less than 10000 ng/ml. The 96-well microtiter plates were cultured at 37° C. for 3 days in an incubator which was maintained at the humidity of 100%, 5% of carbon dioxide and 95% of air. After cultivation is completed, […] of 6 mg/ml solution of MTT {3-(4,5-dimethylthiazol-2yl)-2,5 diphenyltetrazoliumbromide} (Sigma) is added to each well, which is cultured at 37° C. for […] under the same conditions. After cultivation is completed, formazan formed is dissolved by adding 50 μl of a solution of 20% dodecyl sodium sulfonate (SDS) in 0.02N hydrochloric acid and kept standing at 37° C. for 24 hours. The absorbance (OD) of the formazan which was produced in proportion to the number of alive cells, was determined by using immunoreader equipped with 570 nm filter (see The Journal of Immunological Methods, Vol.65, 55-63, 1983).
(§2) Cell growth inhibition rate and IC50 value were calculated according to the correlation between the concentration and the absorbance for each substance.

For data set [5], the system named is mice spleen cells. Nature of the data set: Suppression of reaction of mice spleen cells to lypopolysaccaride (LPS), in vitro (MTT). Format: cell-based, BDF1 mice. As for the experimental part:
as §1, §2

Data set [6] concerns M. pneumoniae. The experiment in a line: MIC, liquid dilution method, Mycoplasma pneumoniae. Conditions: Mycoplasmoides pneumoniae.
Data set [7] relates to M. gallisepticum. The experiment in a line: MIC, liquid dilution method, Mycoplasma gallisepticum. Conditions: Mycoplasmoides gallisepticum.
Data set [8] has as its system M. hyopneumoniae. Nature of the data set: MIC, liquid dilution method, Mycoplasma hyopneumoniae. Conditions: Mesomycoplasma hyopneumoniae.

≈ marks a conversion by molar mass, not a printed value.

Turning to `CCCCCc1cccc(OCc2ccc(Cl)cc2)c1C1=NC(C2SCC(C(O)C(C)(C)C3=NC(C)(C(=O)OC)CS3)N2C)CS1` (stereo not shown) [Compound 11], the minimal effective concentration in data set [1] worked out at 10 µg/mL. The MCC in data set [2] was over 10 µg/mL.

As to `CCCCCc1cccc(O)c1C1=NC(C2SCC(C(OC(C)=O)C(C)(C)C3=NC(C)(C(=O)O)CS3)N2C)CS1` (stereo not shown) [Compound 3], the minimal effective concentration in data set [1] came to 10 µg/mL. The molecule also returned an MCC in data set [2] of over 10 µg/mL.

Turning to `CN(C)[C@@H]1C(O)=C(C(N)=O)C(=O)[C@@]2(O)C(O)=C3C(=O)c4c(O)ccc(Cl)c4[C@@](C)(O)[C@H]3C[C@@H]12` [CTC, chlortetracycline, reference compound], in data set [3] (50 mg/kg × 1, orally), the “air-sac lesions (the number of chickens): (+) slight” value (from here on “air-sac lesions … (+) slight”) was determined as 0, the “air-sac lesions (the number of chickens): (++-+++) moderate to severe” value (“air-sac lesions … to severe” for short) stood at 3, the “air-sac lesions (the number of chickens): (-) non” value (“air-sac lesions … (-) non” below) stood at 3 and the “number of chickens having lesions” value is listed as 3. In addition, in data set [3] (100 mg/kg × 1, orally), the “air-sac lesions … (+) slight” value is 0, the “air-sac lesions … to severe” value turned out to be 1, the “air-sac lesions … (-) non” value stood at 5 and the “number of chickens having lesions” value was 1. Moreover, in data set [3] (200 mg × 1, orally), the “air-sac lesions … (+) slight” value was determined as 0, the “air-sac lesions … to severe” value is on record as 1, the “air-sac lesions … (-) non” value was 5 and the “number of chickens having lesions” value is 1.

Turning to `CCCCCc1cccc(O)c1C1=NC(C2SCC(C(OCc3ccc(Cl)cc3)C(C)(C)C3=NC(C)(C(=O)O)CS3)N2C)CS1` (stereo not shown) [Compound 6], the “suppression of the reaction to Con A of spleen cells” value in data set [4] is recorded as “suppressed”. Besides, the inhibition at 0.156 µg/mL in data set [4] (Mus musculus, 72 h, Con A, 156 ng/ml, read-out: Suppression rate) was 0%; in data set [5] (Mus musculus, 72 h, LPS, 156 ng/ml, read-out: Suppression rate), 17.7%. Also, the inhibition at 0.312 µg/mL stood at 16.5% in data set [4] (Mus musculus, 72 h, Con A, 312 ng/ml, read-out: Suppression rate) and 24.4% in data set [5] (Mus musculus, 72 h, LPS, 312 ng/ml, read-out: Suppression rate). Also, the inhibition at 0.625 µg/mL stood at 87.4% in data set [4] (Mus musculus, 72 h, Con A, 625 ng/ml, read-out: Suppression rate) and 84.3% in data set [5] (Mus musculus, 72 h, LPS, 625 ng/ml, read-out: Suppression rate). Further, the inhibition at 1.25 µg/mL was determined as 98.6% in data set [4] (Mus musculus, 72 h, Con A, 1250 ng/ml, read-out: Suppression rate) and 98% in data set [5] (Mus musculus, 72 h, LPS, 1250 ng/ml, read-out: Suppression rate). In addition, the inhibition at 2.5 µg/mL in data set [4] (Mus musculus, 72 h, Con A, 2500 ng/ml, read-out: Suppression rate) turned out to be 102%; in data set [5] (Mus musculus, 72 h, LPS, 2500 ng/ml, read-out: Suppression rate), 105%. In addition, the IC50 in data set [4] (Mus musculus, Con A) came out at 0.399 µg/mL (≈ 0.578 µM); in data set [5] (Mus musculus, LPS) it was 0.368 µg/mL (≈ 0.533 µM). Besides, in data set [5], the “suppression of the reaction to LPS of spleen cells” value is given as “suppressed”.

Take `CCCCCc1cccc(OC(C)=O)c1C1=NC(C2SCC(C(OC(C)=O)C(C)(C)C3=NC(C)(C(=O)OC)CS3)N2C)CS1` (stereo not shown) [Compound 10]: the minimal effective concentration in data set [1] is over 10 µg/mL. In addition, the MCC in data set [2] was over 10 µg/mL.

In the case of `CCCCCc1cccc(O)c1C1=NC(C2SCC(C(O)C(C)(C)C3=NC(C)(C(N)=O)CS3)N2C)CS1` (stereo not shown) [Compound 31], the MCC in data set [2] turned out to be 10 µg/mL. Also, the MIC came out at 0.2 µg/mL (≈ 0.354 µM) in data set [6], 0.39 µg/mL (≈ 0.69 µM) in data set [7] and 0.2 µg/mL (≈ 0.354 µM) in data set [8].

For the molecule `CCCCCc1cccc(O)c1C1=NC(C2SCC(C(O)C(C)(C)C3=NC(C)(C(=O)NCCO)CS3)N2C)CS1` (stereo not shown) [Compound 30], the minimal effective concentration in data set [1] worked out at 2.5 µg/mL. This molecule also registered an MCC in data set [2] of over 10 µg/mL. Moreover, the MIC in data set [6] stood at 0.2 µg/mL (≈ 0.328 µM); in data set [7], 0.78 µg/mL (≈ 1.28 µM); in data set [8], 0.39 µg/mL (≈ 0.641 µM).

As to `CCCCCc1cccc(O)c1C1=NC(C2SCC(C(O)C(C)(C)C3=NC(C)(C(=O)OCc4ccc(Cl)cc4)CS3)N2C)CS1` (stereo not shown) [Compound 22], the minimal effective concentration in data set [1] was 2.5 µg/mL. The molecule further registered an MCC in data set [2] of over 10 µg/mL. Moreover, the results for the minimum inhibitory concentration (MIC) in data set [6], in data set [7] and in data set [8] were 0.39 µg/mL (≈ 0.565 µM), over 3.13 µg/mL and 0.1 µg/mL (≈ 0.145 µM), respectively.

As for `CCCCCc1cccc(O)c1C1=NC(C2SCC(C(OCc3ccc(Cl)cc3)C(C)(C)C3=NC(C)(C(=O)OC)CS3)N2C)CS1` (stereo not shown) [Compound 13], the minimal effective concentration in data set [1] is over 10 µg/mL. For the same molecule, the MCC in data set [2] was over 10 µg/mL.

As for `CCCCCc1cccc(OCc2ccc(Cl)cc2)c1C1=NC(C2SCC(C(OCc3ccc(Cl)cc3)C(C)(C)C3=NC(C)(C(=O)OCc4ccc(Cl)cc4)CS3)N2C)CS1` (stereo not shown) [Compound 21], the minimal effective concentration in data set [1] is over 10 µg/mL. Also, in data set [2], the MCC was over 10 µg/mL.

On to `CCCCCc1cccc(O)c1C1=NC(C2SCC(C(O)C(C)(C)C3=NC(C)(CO)CS3)N2C)CS1` (stereo not shown) [Compound 32], for which the minimal effective concentration in data set [1] turned out to be 10 µg/mL. The molecule further registered an MCC in data set [2] of over 10 µg/mL. Besides, the MIC in data set [6] is 0.025 µg/mL (≈ 0.0453 µM); in data set [7], 0.39 µg/mL (≈ 0.707 µM); in data set [8], 0.05 µg/mL (≈ 0.0906 µM).

By IC50 is commonly meant the concentration needed to halve the response being measured. Low readings indicate greater potency in that assay, high ones weaker potency in that assay. What is called MIC is the smallest concentration in the dilution series that meets the test's criterion for growth inhibition. A high value points to a need for much substance.

These data come from patent publication US6004952A, “Micacocidin derivatives” (Shinogi & Co., Ltd., priority 1996, dated 1999).
